Where “and” joins values, the source holds several entries; their conditions need not be identical. Equal entries are not always repeated.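 Method: 48-hour compound exposure of cells in 96-well plates, five concentrations, linear interpolation of endpoints. The concentration for 50% growth inhibition is given as GI50. TGI: total growth inhibition.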
Key:
Test in all cases: inhibition of tumour cell growth, NCI panel, 48 h
[1] = system: EKVX NSCLC
[2] = system: CAKI-1 renal
[3] = system: SF-295 CNS
[4] = system: A549 NSCLC
[5] = system: SNB-19 CNS
[6] = system: OVCAR-3 ovarian
[7] = system: COLO 205 colon
[8] = system: SF-268 CNS
[9] = system: CCRF-CEM leukemia
[10] = system: K-562 leukemia

Structure (SMILES) | GI50 [1] | TGI [1] | GI50 [2] | TGI [2] | GI50 [3] | TGI [3] | GI50 [4] | TGI [4] | GI50 [5] | TGI [5] | GI50 [6] | TGI [6] | GI50 [7] | TGI [7] | GI50 [8] | TGI [8] | GI50 [9] | TGI [9] | GI50 [10] | TGI [10]
COc1cc(C=NCC(=O)CSC(c2ccccc2)c2ccccc2)cc(OC)c1OC | 27.8 µM | > 100 µM | 25.2 µM | > 100 µM | 11.5 µM | 58.2 µM | 7.7 µM | > 100 µM | 30 µM | > 100 µM | 13.3 µM | > 100 µM | 4.96 µM | 33 µM | 34.6 µM | > 100 µM | 5.41 µM | > 100 µM | 8.63 µM | 93.7 µM
O=C(O)CCN1C(=O)/C(=C/C(Cl)=C/c2ccccc2)SC1=S | 3.75 µM | 14.2 µM | 2.2 µM | 5.62 µM | 2.7 µM | 8.05 µM | 3.52 µM | 15.1 µM | 3.41 µM | 13.3 µM | 2.41 µM | 7.01 µM | 2.86 µM | 6.71 µM | 3.15 µM | 20.2 µM | 1.87 µM | 8.25 µM | 1.88 µM | 6.26 µM
O=C(NNc1ccc([N+](=O)[O-])cc1)C1OC(CO)C(O)C1O (stereo unspecified) | – | > 100 µM | – | > 100 µM | – | > 100 µM | – | > 100 µM | – | > 100 µM | – | > 100 µM | – | > 100 µM | – | > 100 µM | – | > 100 µM | – | > 100 µM
Cc1ccc(Nc2ccnc(Nc3cccc(C(N)=O)c3)n2)cc1O | 9.2 µM | > 25 µM | 4.11 µM | 19 µM | 7.69 µM | > 25 µM | 8.44 µM | > 25 µM | 11.5 µM | > 25 µM | 6.65 µM | > 25 µM | 10.1 µM | > 20.6 µM | 3.84 µM | > 17.7 µM | 7.99 µM | > 25 µM | 1.34 µM | > 25 µM
COc1ccc(-c2nc(N)nc(-c3cc(C)ccc3O)c2Cl)cc1 | – | > 100 µM | – | > 100 µM | – | > 100 µM | – | > 100 µM | – | > 100 µM | – | 89.8 µM | – | > 100 µM | – | > 100 µM | – | > 100 µM | – | > 100 µM
CC(C)=CCC[C@](C)(O)[C@H]1CC[C@]2(C)[C@@H]1CC[C@@H]1[C@@]3(C)CC[C@H](OC(=O)CCC(=O)O)C(C)(C)[C@@H]3CC[C@]12C | 37.9 µM | > 100 µM | 24.7 µM | > 100 µM | 28.6 µM | 92.5 µM | 32.3 µM | > 100 µM | 25.1 µM | > 100 µM | 15.9 µM | 30.9 µM | 27.4 µM | 95.3 µM | 29.9 µM | > 100 µM | 12.1 µM | 58 µM | 23.8 µM | > 100 µM
Nc1ccccc1C#Cc1ccccc1C#CCCCCO | 29.1 µM | 96.7 µM | 22.8 µM | 67.1 µM | 29.2 µM | 81.2 µM | 18 µM | 45 µM | 35.7 µM | > 100 µM | 25.7 µM | 63.4 µM | 23.7 µM | 59.3 µM | 33.9 µM | > 100 µM | 23.2 µM | 78.7 µM | 19.1 µM | 58.3 µM
C/C(=N\N=C(N)N)c1sc(-c2nc(C)c(/C(C)=N/N=C(N)N)s2)nc1C | – | > 100 µM | – | > 100 µM | – | > 100 µM | – | > 100 µM | – | > 100 µM | – | > 100 µM | – | > 90.6 µM | – | > 100 µM | – | > 100 µM | – | > 100 µM
OCC1CC2CC1C1(C2)OCCO1 (stereo unspecified) | – | > 100 µM | – | > 100 µM | – | > 100 µM | – | > 100 µM | – | > 100 µM | – | > 100 µM | – | > 100 µM | – | > 100 µM | – | > 100 µM | – | > 100 µM
NC(=O)c1ccc(-c2c3ccccc3cc3c2ccc2ccccc23)cc1 | 9.35 µM | > 100 µM | 4.54 µM | 52.8 µM | 5.11 µM | 31 µM | 4.7 µM | 24.7 µM | 5.51 µM | 46.9 µM | 1.94 µM | 6.98 µM | 3.82 µM | 36.5 µM | 2.81 µM | 18.1 µM | 5.83 µM | > 100 µM | 1.5 µM | > 100 µM
C/C(=N\n1c(N)c(C#N)c(-c2ccc(Cl)cc2)c(C#N)c1=O)c1cccnc1 | > 100 µM | > 100 µM | > 100 µM | > 100 µM | > 100 µM | > 100 µM | > 100 µM | > 100 µM | > 100 µM | > 100 µM | > 100 µM | > 100 µM | > 100 µM | > 100 µM | > 100 µM | > 100 µM | > 100 µM | > 100 µM | > 100 µM | > 100 µM
Cc1ccc(S(=O)(=O)ON=C2CC(c3ccccc3)N(C)C(c3ccccc3)C2)cc1 (stereo unspecified) | – | > 100 µM | – | 71.5 µM and 44.9 µM | – | 52.4 µM and 65.5 µM | – | 63.1 µM and 55.1 µM | – | 92.8 µM and > 100 µM | – | 47.8 µM and 49.4 µM | – | 29 µM and 28.3 µM | – | 51.8 µM and 51.1 µM | – | > 100 µM | 60.1 µM and 29.3 µM | > 100 µM
Cc1cc(Br)cc(C)c1NC(=O)C(=O)C(C(=O)c1ccc(Cl)c(Cl)c1)C1OC(=O)c2ccccc21 (stereo unspecified) | – | > 100 µM | – | > 100 µM | – | > 100 µM | – | > 100 µM | – | > 100 µM | – | > 100 µM | – | > 100 µM | – | > 100 µM | – | > 100 µM | – | > 100 µM
O=c1c2c(=NCCCN3CCCC3)cc3c(=O)n(CCCN4CCCC4)c(=O)c4c(NCCCN5CCCC5)cc(c(O)n1CCCN1CCCC1)c2c4-3 | 2.79 µM | 12.9 µM | 10.6 µM | 42 µM | 1.95 µM | 8.61 µM | 1.45 µM | 3.84 µM | 2.11 µM | 10.6 µM | 2.88 µM | 7.03 µM | 1.89 µM | 4.21 µM | 2.23 µM | 8.66 µM | 5.22 µM | 71 µM | 3.36 µM | > 100 µM
